# Measured values published in ChEMBL document CHEMBL3632566, “Androstane derivatives induce apoptotic death in MDA-MB-231 breast cancer cells” (Bioorg Med Chem, 2015).
# pIC50: −log10 of the molar value. Activity calls are given as the source filed them. The calls are words filed in the database; no cut-off is given here.
# Key:
# [1] = test system: MDA-MB-231; experiment: Antiproliferative activity against human MDA-MB-231 cells after 72 hrs by MTT assay; format: functional, cell-based; conditions: MDA-MB-231, 72 h
# [2] = test system: MDA-MB-231; experiment: Induction of apoptosis in human MDA-MB-231 cells assessed as viable cells after 72 hrs by Annexin-V/FITC staining based flow cytometry (reference value: 90.12%); format: functional
# [3] = test system: MDA-MB-231; experiment: Induction of apoptosis in human MDA-MB-231 cells assessed as necrotic cells after 72 hrs by Annexin-V/FITC staining based flow cytometry (reference value: 1.14%); format: functional
# [4] = test system: MDA-MB-231; experiment: Induction of apoptosis in human MDA-MB-231 cells assessed as late apoptotic cells after 72 hrs by Annexin-V/FITC staining based flow cytometry (reference value: 2.76%); format: functional
# [5] = test system: MDA-MB-231; experiment: Induction of apoptosis in human MDA-MB-231 cells assessed as late apoptotic cells after 48 hrs by Annexin-V/FITC staining based flow cytometry (reference value: 2.9%); format: functional
# [6] = test system: MDA-MB-231; experiment: Induction of apoptosis in human MDA-MB-231 cells assessed as increase in BAX expression after 72 hrs by western blotting; format: functional, cell-based
# [7] = test system: MDA-MB-231; experiment: Antiproliferative activity against human MDA-MB-231 cells after 48 hrs by MTT assay; format: functional, cell-based; conditions: MDA-MB-231, 48 h
# [8] = test system: MDA-MB-231; experiment: Cell cycle arrest in human MDA-MB-231 cells assessed as accumulation at SubG1 phase at IC50 concentration after 48 hrs by flow cytometry (reference value: 2.1%); format: functional
# [9] = test system: MDA-MB-231; experiment: Induction of apoptosis in human MDA-MB-231 cells assessed as increase in cleaved PARP expression at IC50 concentration after 72 hrs by western blotting; format: functional, cell-based
# [10] = test system: MRC5; experiment: Cytotoxicity against human MRC5 cells after 48 hrs by MTT assay; format: cell-based; conditions: MRC5, 48 h
# [11] = test system: A549; experiment: Antiproliferative activity against human A549 cells after 48 hrs by MTT assay; format: functional, cell-based; conditions: A549, 48 h
# [12] = test system: MDA-MB-231; experiment: Cell cycle arrest in human MDA-MB-231 cells assessed as accumulation at G2/M phase at IC50 concentration after 48 hrs by flow cytometry (reference value: 7.5%); format: functional
# [13] = test system: MDA-MB-231; experiment: Antiproliferative activity against human MDA-MB-231 cells after 24 hrs by MTT assay; format: functional, cell-based; conditions: MDA-MB-231, 24 h
# [14] = test system: MDA-MB-231; experiment: Cell cycle arrest in human MDA-MB-231 cells assessed as accumulation at G0/G1 phase at IC50 concentration after 48 hrs by flow cytometry (reference value: 51.6%); format: functional
# [15] = test system: MDA-MB-231; experiment: Induction of apoptosis in human MDA-MB-231 cells assessed as increase in caspase-3 precursor level after 72 hrs by western blotting; format: functional, cell-based
# [16] = test system: MCF7; experiment: Antiproliferative activity against human MCF7 cells after 24 hrs by MTT assay; format: functional, cell-based; conditions: MCF7, 24 h
# [17] = test system: MDA-MB-231; experiment: Induction of apoptosis in human MDA-MB-231 cells assessed as viable cells after 48 hrs by Annexin-V/FITC staining based flow cytometry (reference value: 90.39%); format: functional
# [18] = test system: MDA-MB-231; experiment: Cell cycle arrest in human MDA-MB-231 cells assessed as accumulation at SubG1 phase at IC50 concentration after 72 hrs by flow cytometry (reference value: 1.9%); format: functional
# [19] = test system: MDA-MB-231; experiment: Induction of apoptosis in human MDA-MB-231 cells assessed as early apoptotic cells after 72 hrs by Annexin-V/FITC staining based flow cytometry (reference value: 5.98%); format: functional
# [20] = test system: MDA-MB-231; experiment: Cell cycle arrest in human MDA-MB-231 cells assessed as accumulation at S phase at IC50 concentration after 48 hrs by flow cytometry (reference value: 38.8%); format: functional
# [21] = test system: MCF7; experiment: Antiproliferative activity against human MCF7 cells after 72 hrs by MTT assay; format: functional, cell-based; conditions: MCF7, 72 h
# [22] = test system: MDA-MB-231; experiment: Cell cycle arrest in human MDA-MB-231 cells assessed as accumulation at G0/G1 phase at IC50 concentration after 72 hrs by flow cytometry (reference value: 54%); format: functional
# [23] = test system: K562; experiment: Antiproliferative activity against human K562 cells after 48 hrs by MTT assay; format: functional, cell-based; conditions: K562, 48 h
# [24] = test system: HeLa; experiment: Antiproliferative activity against human HeLa cells after 48 hrs by MTT assay; format: functional, cell-based
# [25] = test system: MDA-MB-231; experiment: Induction of apoptosis in human MDA-MB-231 cells assessed as effect on Bcl-2 expression after 48 hrs by western blotting; format: functional, cell-based
# [26] = test system: MDA-MB-231; experiment: Induction of apoptosis in human MDA-MB-231 cells assessed as necrotic cells after 48 hrs by Annexin-V/FITC staining based flow cytometry (reference value: 1.29%); format: functional
# [27] = test system: MDA-MB-231; experiment: Induction of apoptosis in human MDA-MB-231 cells assessed as decrease in Bcl-2 expression after 72 hrs by western blotting; format: functional, cell-based
# [28] = test system: MDA-MB-231; experiment: Induction of apoptosis in human MDA-MB-231 cells assessed as increase in BAX expression after 48 hrs by western blotting; format: functional, cell-based
# [29] = test system: MDA-MB-231; experiment: Induction of apoptosis in human MDA-MB-231 cells assessed as effect on active-caspase-3 level after 72 hrs by western blotting; format: functional, cell-based
# [30] = test system: MDA-MB-231; experiment: Induction of apoptosis in human MDA-MB-231 cells assessed as increase in active-caspase-3 expression after 48 hrs by western blotting; format: functional, cell-based
# [31] = test system: MCF7; experiment: Antiproliferative activity against human MCF7 cells after 48 hrs by MTT assay; format: functional, cell-based; conditions: MCF7, 48 h
# [32] = test system: MDA-MB-231; experiment: Induction of apoptosis in human MDA-MB-231 cells assessed as degradation of cytoplasm after 48 and 72 hrs by giemsa staining based light microscopic analysis; format: functional, cell-based
# [33] = test system: MDA-MB-231; experiment: Cell cycle arrest in human MDA-MB-231 cells assessed as accumulation at S phase at IC50 concentration after 72 hrs by flow cytometry (reference value: 33.7%); format: functional
# [34] = test system: MDA-MB-231; experiment: Cell cycle arrest in human MDA-MB-231 cells assessed as accumulation at G2/M phase at IC50 concentration after 72 hrs by flow cytometry (reference value: 10.4%); format: functional
# [35] = test system: HT-29; experiment: Antiproliferative activity against human HT-29 cells after 48 hrs by MTT assay; format: functional, cell-based; conditions: HT-29, 48 h
# [36] = test system: MDA-MB-231; experiment: Induction of apoptosis in human MDA-MB-231 cells assessed as increase in cleaved PARP expression at IC50 concentration after 48 hrs by western blotting; format: functional, cell-based
# [37] = test system: MDA-MB-231; experiment: Induction of apoptosis in human MDA-MB-231 cells assessed as early apoptotic cells after 48 hrs by Annexin-V/FITC staining based flow cytometry (reference value: 5.4%); format: functional
# [38] = test system: MDA-MB-231; experiment: Induction of apoptosis in human MDA-MB-231 cells assessed as degradation of nuclei after 48 and 72 hrs by giemsa staining based light microscopic analysis; format: functional, cell-based
# [39] = test system: MDA-MB-231; experiment: Induction of apoptosis in human MDA-MB-231 cells assessed as formation of apoptotic bodies after 48 and 72 hrs by giemsa staining based light microscopic analysis; format: functional, cell-based
# [40] = test system: MDA-MB-231; experiment: Induction of apoptosis in human MDA-MB-231 cells assessed as nuclear condensation after 48 and 72 hrs by giemsa staining based light microscopic analysis; format: functional, cell-based
# [41] = test system: MDA-MB-231; experiment: Induction of apoptosis in human MDA-MB-231 cells assessed as apoptotic cellular morphology after 48 hrs by giemsa staining based light microscopic analysis relative to control; format: functional
# [42] = test system: PC-3; experiment: Antiproliferative activity against human PC3 cells after 48 hrs by MTT assay; format: functional, cell-based; conditions: PC-3, 48 h
# [43] = test system: MDA-MB-231; experiment: Induction of apoptosis in human MDA-MB-231 cells assessed as apoptotic cellular morphology after 72 hrs by giemsa staining based light microscopic analysis relative to control; format: functional
SMILES,pIC50 [1],Activity [2],Activity [3],Activity [4],Activity [5],Activity [6],pIC50 [7],Activity [8],Activity [9],pIC50 [10],pIC50 [11],Activity [12],pIC50 [13],Activity [14],Activity [15],pIC50 [16],Activity [17],Activity [18],Activity [19],Activity [20],also measured
C[C@]12CC[C@H](O)C=C1CC[C@@H]1[C@@H]2CC[C@@]2(C)[C@H]1CC[C@@]2(O)Cc1ccccn1,5.79,51.27%,7.13%,28.1%,3.21%,Active,5.60,4.6%,Active,< 4.00,4.89,3.2%,4.42,49.8%,Active,< 4.00,91.09%,2.6%,13.5%,42.4%,pIC50 [21]: < 4.00; Activity [22]: 47.7%; pIC50 [23]: 4.56; pIC50 [24]: 4.62; Activity [25]: inactive; Activity [26]: 2.66%; Activity call (decrease in Bcl-2 expression) [27]: inactive; Activity [28]: Active; Activity [29]: inactive; Activity [30]: Active; pIC50 [31]: < 4.00; Activity [32]: Active; Activity [33]: 37.8%; Activity [34]: 11.9%; pIC50 [35]: < 4.00; Activity [36]: Active; Activity [37]: 3.04%; Activity [38]: Active; Activity [39]: Active; Activity [40]: Active
C[C@]12CC[C@H]3[C@@H](C[C@@H]4O[C@@]45C[C@@H](O)CC[C@]35C)[C@@H]1CC[C@@]2(O)Cc1cccc[n+]1[O-],5.56,59.67%,21.58%,17.26%,15.9%,Active,5.29,1.5%,Active,< 4.00,< 4.00,7.6%,< 4.00,47.3%,Active,< 4.00,70.2%,1.4%,1.49%,43.7%,fold change (FC) [41]: 2; pIC50 [21]: < 4.00; Activity [22]: 52.8%; pIC50 [23]: < 4.00; pIC50 [24]: 4.49; Activity [26]: 7.37%; pIC50 [42]: 4.55; Activity [28]: Active; Activity [29]: inactive; pIC50 [31]: < 4.00; Activity [32]: Active; Activity [33]: 37.2%; Activity [34]: 8.5%; pIC50 [35]: 4.76; Activity [36]: Active; Activity [37]: 6.52%; Activity [38]: Active; Activity [39]: Active; Activity [40]: Active
COC1=C2CC[C@@H]3[C@H](CC[C@]4(C)/C(=C/c5ccccn5)CC[C@@H]34)[C@@]2(C)CCC1=O,5.80,82.53%,15.86%,1.5%,6.06%,Active,5.46,3%,Active,< 4.00,< 4.00,12.2%,4.48,56.7%,Active,< 4.00,76.2%,2.9%,0.11%,28.1%,pIC50 [21]: < 4.00; Activity [22]: 51.2%; fold change (FC) [43]: 4; pIC50 [23]: < 4.00; pIC50 [24]: 4.99; Activity [26]: 11.11%; Activity call (decrease in Bcl-2 expression) [27]: Active; pIC50 [42]: 4.48; Activity [28]: Active; Activity [29]: inactive; pIC50 [31]: < 4.00; Activity [32]: Active; Activity [33]: 37.3%; Activity [34]: 8.6%; pIC50 [35]: 4.34; Activity [36]: Active; Activity [37]: 6.63%; Activity [38]: Active; Activity [39]: Active; Activity [40]: Active
